Experimental data as given in patent US7625870B2, “Peptide substance restoring respiratory organs function” (“Access Bioscience” CJSC, priority 2004, dated 2009).
Marks after values point to notes of the source that are not given here. Peptide text beside a SMILES is read from it.

Key:
[1] = tested on: bleomycine lung fibrosis in rats; assay: Chronic fibrosing inflammatory process (bleomycine lung fibrosis) in rats; type: in vivo, rat; settings: for Body weight / Relative lungs weight / Ventricular index, right ven./left ven. × 100%: 0,2 μg/kg intraperitoneally; for Blood large CIC / Blood medium CIC: blood serum
Description: The experiment was carried out on 120 white mongrel rats weighing 130-160 g. The animals were divided at random into 3 groups, 40 animals in each. Then the animals were subjected to a thrice-repeated intratracheal administration of bleomycine solution (at a rate of 10.0 mg per kg of body weight) with 2 weeks interval. The tetrapeptide was administered intraperitoneally in the dose of […] of body weight in sterile 0,9% NaCl solution in the course of 7 days beginning from the 5h day after each bleomycine installation.
10 animals of each group were excluded from the experiment by the method of cervical dislocation on the 15, 30, 45 and 60 days after experiment onset.
In each period there was conducted broncho-alveolar lavage fluid (BALF) test in order to estimate its cellular content, and alveolar macrophages phagocytic activity, production of superoxide-anion and total free radical production by BALF cells. In the blood and BALF there were estimated the number of circulating immune complexes (CIC). After the last bleomycin administration there was conducted lung examination.

[2] = tested on: sublethal hyperoxic lung injury in rats; assay: Sublethal hyperoxic lung injury in rats; type: in vivo, rat
Description: The experiment was conducted on 96 white mongrel rats weighing 200-230 g. The animals were divided into three groups: 8 intact animals, 48 control and 40 experimental animals. The animals were exposed to oxygenation by 100% oxygen during 60 hours in the running mode by normal pressure in chamber with oxygen expenditure, providing 8-10 full changes of the gas medium in one hour. Tetrapeptide administration was set out on the 3rd day of being in the normal atmosphere. Experimental animals were administered with the tetrapeptide (intraperitoneal administration in the dose of 0,2 μg/kg of body weight, dissolved in 0.9% sodium chloride solution (natural saline), 10 injections, every other day). […] There were conducted biometrical studies, estimation of BALF cytogram and AM phagocytic activity. BALF cellular content was estimated by coloring of the precipitated cells on the glass following the Leishman-Romanowsky method.

white mongrel male rats = assay: Subacute toxicity, 90 days intramuscular; type: in vivo, rat; settings: long term administration, doses 100-1000 times exceeding the therapeutic one
Excerpt: (§1) The general toxic effect of tetrapeptide was studied in compliance with “The manual of Experimental (Pre-Clinical) Study of New Pharmacological Substances” (2000): acute toxicity was studied in conditions of tetrapeptide single administration, subacute and chronic toxicity were investigated in conditions of long tetrapeptide administration.
Subacute toxicity of the tetrapeptide was investigated on 60 white mongrel male rats weighing 150-250g. The animals of the experimental groups were exposed to intramuscular injection of the tetrapeptide in the doses of 1 μg/kg, 0,1 mg/kg, 1 mg/kg in 0,5 ml of natural saline solution, once a day for 90 days. The animals of the control group were administered with natural saline solution in the same amount. Before the onset of tetrapeptide administration in the 30th, 60th and 90th day the animals were exposed to an examination of the morphological composition and characteristics of the peripheral blood. On the completion of the experiment there were studied biochemical and coagulological blood indices.

[3] = tested on: lung tissue explants of mature Wistar rats; assay: Growth of lung organotypical culture explants; type: cell-based, rat; settings: for SI, % compared to the control: 3 days of incubation
Description: Lung tissue explants of mature Wistar rats were cultivated in petri dishes with collagen bottom cover. The nutritious medium was composed of 35% Eagle's medium, 35% Hanx solution, 25% calf fetal serum and 5% of chicken embryonic extract with added glucose, insulin, gentamycin and glutamin. Ala-Glu-Asp-Leu (SEQ ID NO:1) tetrapeptide was added into the cultural medium in fixed concentrations, from 0,01 to 20,0 ng per ml of nutritious medium. The same amount of natural saline solution was added to the control explants. After 3 days of incubation at the temperature of 37° C. there was assessed an extension of explants' area using phase contrast microscope. Biological activity of the preparation was evaluated by the change of square index (SI) of the explants cultivated in the medium containing the peptide, compared to the control.

male guinea-pigs = settings: guinea pig, in vivo
Excerpt: as §1
The tetrapeptide was investigated for chronic toxicity for 6 months, taking into consideration the recommended period of administration, on 100 male guinea-pigs weighing 300-350 g. The animals of the experimental groups were intramuscularly injected with the tetrapeptide in the doses 1 μg/kg, 0,1 mg/kg, 1 mg/kg in 0,5 ml of natural saline solution, once a day for 6 months. The animals of the control group were administered with natural saline solution in the same amount.
These animals were exposed to the assessment of the amount of erythrocytes, hemoglobin, reticulocytes, thrombocytes, leucocytes, leukocytic formula, speed of erythrocytes sedimentation (SES), erythrocytes resistance in peripheral blood. Together with this there was measured the total protein content in the blood serum according to the method of Lowry, potassium and sodium content were measured according to the method of plasma spectrophotometry. On completion of the experiment the animals were subjected to a pathomorphological examination to assess the state of brain and spinal marrow, cerebrospinal ganglia, thyroid gland, adrenal glands, testes, pituitary body, heart, lungs, aorta, liver, kidneys, urinary bladder, pancreas, stomach, small intestine, large intestine, thymus, spleen, lymph nodes, bone marrow.

white mongrel male mice = assay: Acute toxicity, single intramuscular injection; type: in vivo, mouse; settings: dose exceeding the therapeutic one 5000 times
Excerpt: as §1
Acute toxicity was investigated on 60 white mongrel male mice weighing 20-23 g. The animals were randomized to 6 equal groups. They were intramuscularly injected with the tetrapeptide once in the doses of 1 mg/kg, 2 mg/kg, 3 mg/kg, 4 mg/kg, 5 mg/kg in 0.25 ml of natural saline solution. The control animals received the same amount of natural saline solution (0.9%).

[4] = tested on: acute bacterial lung injury (Staphilococcus aureus 209) in rats; assay: Acute inflammation model, bacterial lung injury in rats (BALF cytogram, AM phagocytic activity); type: in vivo, rat
Description: The study was conducted on 120 white mongrel rats with average body weight 200-230 g. The animals were divided at random into 3 groups: 10 (intact), 60 (control) and 50 (experimental). In order to infect the animals there was used twenty-four-hours' culture of Staphilococcus aureus 209, which is tropic to rodents pulmonic tissue. There was also used a cellular suspension 5×10^6 cl/ml with Freind adjuvant (25% of total volume). Before infecting the animals were exposed to a supercooling at temperature −20° C. for 1 hour. Then the animals were infected using light thiopental narcosis (8 mg/100g of body weight) in sterile box. Injections of tetrapeptide were started in 2 days after infecting and were conducted for 7 days (daily, intraperitoneally in dose of 0,2 μg/kg). Control animals were administered with 0.9% NaCl solution. The animals were excluded from the trial on the 1, 3, 6, 10, […] and 20th days by the method of cervical dislocation. In each period there was conducted BAFL testing in order to estimate its cellular content and AM phagocytic activity, superoxid-anion (SA) production and total free radical production by BAFL cells. On the 1 and the 6th days of the study there was conducted lung morphological examination.

[5] = day 3, 0,2 μg/kg intraperitoneally
[6] = day 6, 0,2 μg/kg intraperitoneally
[7] = day 10, 0,2 μg/kg intraperitoneally
[8] = day 15, 0,2 μg/kg intraperitoneally
[9] = day 20, 0,2 μg/kg intraperitoneally
[10] = in words, 0,2 μg/kg intraperitoneally

CC(C)C[C@H](NC(=O)[C@H](CC(=O)O)NC(=O)[C@H](CCC(=O)O)NC(=O)[C@H](C)N)C(=O)O [Tetrapeptide, L-alanyl-L-glutamyl-L-aspartyl-L-leucine] (H-AEDL-OH)
number of lymphocytes in BAFL ([1]; 30th day): 1,75±0,45 ×10^6 cells/lungs | AM phagocytic activity, phagocytic index ([1]; 45th day): 75,6±4,5 | AM phagocytic activity, phagocytic index ([1]; 60th day): 78,6±3,2 | number of lymphocytes in BAFL ([1]; 60th day): 1,11±0,15 ×10^6 cells/lungs | Body weight ([1]; day 15): 151.6 ± 5.6 g | Relative lungs weight ([1]; day 15): 11.3 ± 0.6 mg/g of body weight | Ventricular index, right ven./left ven. × 100% ([1]; day 15): 34.2 ± 1.8+ % | BAFL large CIC ([1]; day 15): 42.6 ± 13.1 units | BAFL medium CIC ([1]; day 15): 37.6 ± 7.6 units | Blood large CIC ([1]; day 15): 47.2 ± 12.3 units | Blood medium CIC ([1]; day 15): 113.4 ± 11.6+ units | Body weight ([1]; day 30): 176.8 ± 5.8 g | Relative lungs weight ([1]; day 30): 12.8 ± 0.4 mg/g of body weight | Ventricular index, right ven./left ven. × 100% ([1]; day 30): 37.2 ± 1.5*+ % | BAFL large CIC ([1]; day 30): 52.3 ± 8.3*+ units | BAFL medium CIC ([1]; day 30): 72.3 ± 8.1*+ units | Blood large CIC ([1]; day 30): 85.9 ± 12.3*+ units | Blood medium CIC ([1]; day 30): 187.6 ± 20.4*+ units | Body weight ([1]; day 45): 195.3 ± 6.5+ g | Relative lungs weight ([1]; day 45): 11.5 ± 0.3*+ mg/g of body weight | Ventricular index, right ven./left ven. × 100% ([1]; day 45): 42.3 ± 2.1*+ % | BAFL large CIC ([1]; day 45): 76.3 ± 8.3*+ units | BAFL medium CIC ([1]; day 45): 79.4 ± 5.4*+ units | Blood large CIC ([1]; day 45): 135.2 ± 12.3*+ units | Blood medium CIC ([1]; day 45): 208.7 ± 12.5*+ units | Body weight ([1]; day 60): 234 ± 9.3+ g | Relative lungs weight ([1]; day 60): 13.4 ± 0.5*+ mg/g of body weight | Ventricular index, right ven./left ven. × 100% ([1]; day 60): 46.6 ± 1.4*+ % | Ventricular index, right ven./left ven. × 100% ([1]; day 60, listed as tetrapeptide): 46,6±1,4% | BAFL large CIC ([1]; day 60): 53.2 ± 9.4+ units | BAFL medium CIC ([1]; day 60): 41.8 ± 6.7+ units | Blood large CIC ([1]; day 60): 81.3 ± 11.3*+ units | Blood medium CIC ([1]; day 60): 159.4 ± 12.8+ units | basal superoxid-anion production in response to respiratory explosion stimulators ([1]; in words): decrease | lung morphologic changes as compared to control animals ([1]; in words, after the 3rd bleomycine installation): reliably less pronounced | Body weight ([2]; 0,2 μg/kg intraperitoneally, 10 injections, day not given): 228 ± 6+ g | Phagocytic activity of AM, Phagocytic index ([2]; day 10): 50.8 ± 2.3+ | Phagocytic activity of AM, Phagocytic number ([2]; day 10): 5.78 ± 0.42*+ | Phagocytic activity of AM, Phagocytic index ([2]; day 10, listed as tetrapeptide): 50,8±2,3 | Phagocytic activity of AM, Phagocytic index ([2]; day 20): 45.8 ± 2.6*+ | Phagocytic activity of AM, Phagocytic number ([2]; day 20): 3.35 ± 0.35+ | Phagocytic activity of AM, Phagocytic index ([2]; day 20, listed as tetrapeptide): 45,5±2,6 | Phagocytic activity of AM, Phagocytic index ([2]; day 30): 42.7 ± 2.5 | Phagocytic activity of AM, Phagocytic number ([2]; day 30): 2.83 ± 0.36 | Phagocytic activity of AM, Phagocytic index ([2]; day 40): 40.3 ± 2.3 | Phagocytic activity of AM, Phagocytic number ([2]; day 40): 3.45 ± 0.23 | Phagocytic activity of AM, Phagocytic index ([2]; day 50): 38.5 ± 2.3 | Phagocytic activity of AM, Phagocytic number ([2]; day 50): 3.21 ± 0.24 | pathomorphological changes manifestation (interstitial fibrosis, atelectasis foci, cellular infiltration) ([2]; in words): decrease | subacute toxicity, side-effects (white mongrel male rats): does not reveal any side-effects | SI, % compared to the control ([3]; 0.01 ng/ml): 2% | SI, % compared to the control ([3]; 0.1 ng/ml): 14% | SI, % compared to the control ([3]; 0.5 ng/ml): 9% | SI, % compared to the control ([3]; 1.0 ng/ml): 22* % | SI, % compared to the control ([3]; 2.0 ng/ml): 53* % | SI, % compared to the control ([3]; 10.0 ng/ml): 25* % | SI, % compared to the control ([3]; 20.0 ng/ml): 9% | growth of organotypic lung culture explants ([3]; in words, concentrations from 1,0 to 10,0 ng/ml): reliably stimulates | chronic toxicity, side-effects (male guinea-pigs): does not reveal any side-effects | effect on SES, erythrocytes resistance and biochemical indices of blood serum (male guinea-pigs): weren't revealed a reliable effect | number of leucocytes (blood morphological content) (male guinea-pigs): increase | acute toxicity, toxic reactions (white mongrel male mice): does not cause any toxic reactions | BAFL cytogram, Lymphocytes [4, 5]: 1.68 ± 0.16 ×10^6 cells/lungs | BAFL cytogram, Macrophages [4, 5]: 29.7 ± 2.8*+ ×10^6 cells/lungs | BAFL cytogram, Neutrophiles [4, 5]: 6.98 ± 1.48*+ ×10^6 cells/lungs | Phagocytic index (alveolar macrophages) [4, 5]: 52.4 ± 2.9*+ | Phagocytic number (alveolar macrophages) [4, 5]: 5.83 ± 0.37*+ | BAFL cytogram, Lymphocytes [4, 6]: 0.86 ± 0.23 ×10^6 cells/lungs | BAFL cytogram, Macrophages [4, 6]: 24.9 ± 1.2*+ ×10^6 cells/lungs | BAFL cytogram, Neutrophiles [4, 6]: 0.52 ± 0.18 ×10^6 cells/lungs | Phagocytic index (alveolar macrophages) [4, 6]: 41.5 ± 3.1+ | Phagocytic number (alveolar macrophages) [4, 6]: 4.98 ± 0.28*+ | BAFL cytogram, Lymphocytes [4, 7]: 0.59 ± 0.28 ×10^6 cells/lungs | BAFL cytogram, Macrophages [4, 7]: 19.2 ± 2.8*+ ×10^6 cells/lungs | BAFL cytogram, Neutrophiles [4, 7]: 0.31 ± 0.18 ×10^6 cells/lungs | Phagocytic index (alveolar macrophages) [4, 7]: 49.2 ± 2.8+ | Phagocytic number (alveolar macrophages) [4, 7]: 2.98 ± 0.32+ | BAFL cytogram, Lymphocytes [4, 8]: 0.79 ± 0.20 ×10^6 cells/lungs | BAFL cytogram, Macrophages [4, 8]: 16.3 ± 2.8 ×10^6 cells/lungs | BAFL cytogram, Neutrophiles [4, 8]: 0.21 ± 0.16 ×10^6 cells/lungs | Phagocytic index (alveolar macrophages) [4, 8]: 55.9 ± 4.2 | Phagocytic number (alveolar macrophages) [4, 8]: 3.74 ± 0.25 | BAFL cytogram, Lymphocytes [4, 9]: 0.56 ± 0.17 ×10^6 cells/lungs | BAFL cytogram, Macrophages [4, 9]: 14.6 ± 2.1 ×10^6 cells/lungs | BAFL cytogram, Neutrophiles [4, 9]: 0.25 ± 0.11 ×10^6 cells/lungs | Phagocytic index (alveolar macrophages) [4, 9]: 49.3 ± 3.6 | Phagocytic number (alveolar macrophages) [4, 9]: 3.68 ± 0.31 | basal and zymosan-stimulated production of SA (superoxid-anion) by AM [4, 10]: reliably increases | normalization of free radical production of BALF cells [4, 10]: more rapid normalization | processes of lung tissue reparation ([4]; in words, dose of 0,2 μg/kg of body weight): speeding-up
